The test system of this test is Plantago lanceolate (ribwort plantain) and Poa annua (annual meadow grass). Description: Pot test with solid (powdered) alkali silicates or mixtures: weed coverage rate, degree of efficiency = weed penetration resistance (Example 2). Format: in vivo. The settings on record: in the dosage used in the mixtures. As to the method: The experiment was carried out in the laboratory in plant pots with a volume of 450 cm^3. The application area was 78.5 cm^2. The soil substrate was a sifted land soil. Humus (humic soil) was used as a nutrient source for the desired plant. […] On top of the humic soil, 250 g of sifted land soil was placed. Both soil substrates were free of weed growth prior to treatment. Both soils contained minimal residues of endemic weed seeds or inflowing seeds. These present seeds were not sufficient for efficient weed growth. […] For this purpose, the weeds were worked into the top soil layer in a depth of 2-4 mm. Different alkali silicate powders were used in this experiment, which are specified in detail below. Hardeners and/or performance modifiers were added, if applicable. The solid formulations were mixed and then applied homogeneously to the soil surface. […] The coverage rate was determined by manual visual assessment of the plant pots at the specified times, as described in example 1. […] From this in turn the degree of efficiency according to Abbott was calculated as follows: Degree of efficiency=[coverage rate control(day x)−coverage rate product(day x)]/coverage rate control(day x)*100 Furthermore, the quality of the formed layer was observed regularly with respect to crack formation. […]

In the case of `CC(=O)[O-].CC(=O)[O-].[Ca+2]` [calcium acetate], the “weed penetration resistance of the performance modifier alone” value is “An effect is observed only at the beginning of the experiment”.

The record behind these values is patent publication US20240090506A1, “SURFACE MODIFICATION TO REGULATE PLANT GROWTH” (BIND-X GMBH, priority 2020, published 2024).
